Measurements published in PubChem BioAssay (NCI).
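Assay format: 96-well plates, 48-hour exposure. TGI marks complete inhibition of growth.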

Key:
Assay in all cases: NCI-60 cell line screen, 48 h
SN12C renal = system: SN12C renal
LXFL 529 NSCLC = system: LXFL 529 NSCLC
NCI-H460 lung = system: NCI-H460 lung
A549 NSCLC = system: A549 NSCLC
MOLT-4 leukemia = system: MOLT-4 leukemia
DMS 273 small cell lung = system: DMS 273 small cell lung
CCRF-CEM leukemia = system: CCRF-CEM leukemia
OVCAR-8 ovarian = system: OVCAR-8 ovarian
SK-MEL-28 melanoma = system: SK-MEL-28 melanoma
RPMI-8226 leukemia = system: RPMI-8226 leukemia
TK-10 renal = system: TK-10 renal
SNB-78 CNS = system: SNB-78 CNS
COLO 205 colon = system: COLO 205 colon
SNB-19 CNS = system: SNB-19 CNS
NCI-H226 lung = system: NCI-H226 lung
SK-MEL-5 melanoma = system: SK-MEL-5 melanoma
IGROV1 ovarian = system: IGROV1 ovarian
786-0 renal = system: 786-0 renal
OVCAR-4 ovarian = system: OVCAR-4 ovarian
EKVX NSCLC = system: EKVX NSCLC
M19-MEL melanoma = system: M19-MEL melanoma
SF-268 CNS = system: SF-268 CNS
HOP-92 NSCLC = system: HOP-92 NSCLC
SNB-75 CNS = system: SNB-75 CNS
NCI-H522 lung = system: NCI-H522 lung
HT29 colon = system: HT29 colon
HL-60(TB) leukemia = system: HL-60(TB) leukemia
CAKI-1 renal = system: CAKI-1 renal
SW-620 colon = system: SW-620 colon
HCT-15 colon = system: HCT-15 colon
KM20L2 colon = system: KM20L2 colon
HOP-62 NSCLC = system: HOP-62 NSCLC
OVCAR-3 ovarian = system: OVCAR-3 ovarian
UACC-62 melanoma = system: UACC-62 melanoma
UACC-257 melanoma = system: UACC-257 melanoma
MALME-3M melanoma = system: MALME-3M melanoma
LOX IMVI melanoma = system: LOX IMVI melanoma
K-562 leukemia = system: K-562 leukemia
HCC-2998 colon = system: HCC-2998 colon
SK-OV-3 ovarian = system: SK-OV-3 ovarian
SF-295 CNS = system: SF-295 CNS
UO-31 renal = system: UO-31 renal
M14 melanoma = system: M14 melanoma
RXF-631 renal = system: RXF-631 renal
ACHN renal = system: ACHN renal
A498 renal = system: A498 renal
SF-539 CNS = system: SF-539 CNS
DLD-1 colon = system: DLD-1 colon
KM12 colon = system: KM12 colon
DMS 114 small cell lung = system: DMS 114 small cell lung
HCT-116 colon = system: HCT-116 colon
U251 CNS = system: U251 CNS
NCI-H23 lung = system: NCI-H23 lung
XF 498 CNS = system: XF 498 CNS
SK-MEL-2 melanoma = system: SK-MEL-2 melanoma
OVCAR-5 ovarian = system: OVCAR-5 ovarian
HOP-18 NSCLC = system: HOP-18 NSCLC
RXF 393 renal = system: RXF 393 renal
SR leukemia = system: SR leukemia

Measured: TGI

O=C(O)C12C3C4C1C1C2C3C41I (stereo not drawn)
not listed: HOP-18 NSCLC | RXF 393 renal | SR leukemia
> 100 µM: all other assays above

CC1=CC(=O)N2[C@H](OC[C@@H]2C(C)C)O1
not listed: DMS 273 small cell lung | SNB-78 CNS | EKVX NSCLC | LOX IMVI melanoma | HCC-2998 colon | A498 renal | OVCAR-5 ovarian
> 100 µM: all other assays above
